Results as given in ChEMBL document CHEMBL5154842, “Unique Carbazole-Oxadiazole Derivatives as New Potential Antibiotics for Combating Gram-Positive and -Negative Bacteria” (J Med Chem, 2022).
Values after ≈ are worked out from the molar mass of the structure shown. Active and inactive are the calls of the source. The calls are words filed in the database; no cut-off is given here.

Assays:
Staphylococcus aureus [1] = test: Antibacterial activity against methicillin-resistant Staphylococcus aureus N315 assessed as inhibition of bacterial growth incubated for 24 hrs by CLSI protocol based two fold serial dilution method; assay type: functional
Enterococcus faecalis = test: Antibacterial activity against Enterococcus faecalis assessed as inhibition of bacterial growth incubated for 24 hrs by CLSI protocol based two fold serial dilution method; assay type: functional
Staphylococcus aureus [2] = test: Antibacterial activity against Staphylococcus aureus assessed as inhibition of bacterial growth incubated for 24 hrs by CLSI protocol based two fold serial dilution method; assay type: functional
Staphylococcus aureus [3] = test: Antibacterial activity against Staphylococcus aureus 25923 assessed as inhibition of bacterial growth incubated for 24 hrs by CLSI protocol based two fold serial dilution method; assay type: functional
Staphylococcus aureus [4] = test: Antibacterial activity against Staphylococcus aureus 29213 assessed as inhibition of bacterial growth incubated for 24 hrs by CLSI protocol based two fold serial dilution method; assay type: functional
Klebsiella pneumoniae = test: Antibacterial activity against Klebsiella pneumonia assessed as inhibition of bacterial growth incubated for 24 hrs by CLSI protocol based two fold serial dilution method; assay type: functional
Escherichia coli [5] = test: Antibacterial activity against Escherichia coli assessed as inhibition of bacterial growth incubated for 24 hrs by CLSI protocol based two fold serial dilution method; assay type: functional
Escherichia coli [6] = test: Antibacterial activity against Escherichia coli 25922 assessed as inhibition of bacterial growth incubated for 24 hrs by CLSI protocol based two fold serial dilution method; assay type: functional
Pseudomonas aeruginosa [7] = test: Antibacterial activity against Pseudomonas aeruginosa assessed as inhibition of bacterial growth incubated for 24 hrs by CLSI protocol based two fold serial dilution method; assay type: functional
Pseudomonas aeruginosa [8] = test: Antibacterial activity against Pseudomonas aeruginosa ATCC 27853 assessed as inhibition of bacterial growth incubated for 24 hrs by CLSI protocol based two fold serial dilution method; assay type: functional
Acinetobacter baumannii = test: Antibacterial activity against Acinetobacter baumannii assessed as inhibition of bacterial growth incubated for 24 hrs by CLSI protocol based two fold serial dilution method; assay type: functional
Staphylococcus aureus [9] = test: Antibacterial activity against methicillin-resistant Staphylococcus aureus N315 assessed as change in susceptibility at sub-MIC treated over 9 serial passages measured after 9 days by resistance development assay; assay type: functional, organism-based; conditions: time 9.0 day
Pseudomonas aeruginosa [10] = test: Antibacterial activity against Pseudomonas aeruginosa ATCC 27853 assessed as change in susceptibility at sub-MIC treated over 9 serial passages measured after 9 days by resistance development assay; assay type: functional, organism-based; conditions: time 9.0 day
Staphylococcus aureus [11] = test: Antibacterial activity against methicillin-resistant Staphylococcus aureus N315 assessed as inhibition of bacterial growth at 0.5 to 16 ug/ml measured after 24 hrs by microplate reader assay; assay type: functional, organism-based; conditions: dose 0.5-16 µg/ml
HEK-293T = test: Cytotoxicity against human HEK293T cells assessed as cell viability at 0.5 to 64 ug/ml incubated for 24 hrs by MTT assay; assay type: toxicity, cell-based; conditions: dose 0.5-64 µg/ml
HeLa = test: Cytotoxicity against human HeLa cells assessed as cell viability at 0.5 to 64 ug/ml incubated for 24 hrs by MTT assay; assay type: toxicity, cell-based; conditions: dose 0.5-64 µg/ml
[12] = Hemolytic activity in human RBC assessed as hemolysis at 1 to 32 ug/ml measured after 60 mins by microplate reader assay relative to control; assay type: toxicity, cell-based, Erythrocyte; conditions: red blood cells (erythrocytes), at 1 to 32 µg/mL, dose 1-32 µg/ml, read-out: Activity
Cell membrane [13] = test: Induction of outer membrane permeabilization in Pseudomonas aeruginosa ATCC 27853 assessed as increase in NPN uptake by measuring increase in fluorescence intensity at 1 ug/ml by NPN-dye based fluorescence analysis; conditions: dose 1.0 µg/ml
Cell membrane [14] = test: Induction of inner membrane permeabilization in Pseudomonas aeruginosa ATCC 27853 assessed as increase in PI uptake by measuring increase in fluorescence intensity at 1 to 8 ug/ml incubated for 30 mins by calcein-AM/PI staining based fluorescence microscopic analysis; conditions: dose 1-8 µg/ml
Cell membrane [15] = test: Induction of cell membrane disruption in Pseudomonas aeruginosa ATCC 27853 assessed as increase in protein leakage at 0.5 to 6 ug/ml incubated under agitation condition by Bradford assay; conditions: dose 0.5-6 µg/ml
Cell membrane [16] = test: Induction of cell membrane disruption in Pseudomonas aeruginosa ATCC 27853 assessed as increase in nucleotides leakage at 0.5 to 6 ug/ml incubated under agitation condition by UV absorption based analysis; assay type: subcellular; conditions: dose 0.5-6 µg/ml
Staphylococcus aureus [17] = test: Antibacterial activity against methicillin-resistant Staphylococcus aureus N315 assessed as inhibition of bacterial growth at 0.25 to 64 ug/ml incubated for 24 hrs by Alamar blue assay; assay type: functional, organism-based; conditions: dose 0.25-64 µg/ml
Staphylococcus aureus [18] = test: Antibacterial activity against methicillin-resistant Staphylococcus aureus N315 assessed as increase in germicidal effect at 0.5 ug/ml measured after 7 hrs by microplate reader assay; assay type: functional, organism-based; conditions: dose 0.5 µg/ml

Row | Compound | MIC (Staphylococcus aureus [1]) | MIC (Enterococcus faecalis) | MIC (Staphylococcus aureus [2]) | MIC (Staphylococcus aureus [3]) | MIC (Staphylococcus aureus [4]) | MIC (Klebsiella pneumoniae) | MIC (Escherichia coli [5]) | MIC (Escherichia coli [6]) | MIC (Pseudomonas aeruginosa [7]) | MIC (Pseudomonas aeruginosa [8]) | MIC (Acinetobacter baumannii) | Activity (Staphylococcus aureus [9]) | Activity (Pseudomonas aeruginosa [10]) | Activity (Staphylococcus aureus [11]) | Activity (HEK-293T) | Activity (HeLa) | hemolysis at 1 h [12] | Activity (Cell membrane [13]) | Activity (Cell membrane [14]) | Activity (Cell membrane [15]) | also measured
1 | Sc1nnc(COc2cccc3c2c2ccccc2n3CC2CCCC2)o1 | 0.25 µg/mL (≈ 0.659 µM) | 2 µg/mL (≈ 5.27 µM) | 256 µg/mL (≈ 675 µM) | 1 µg/mL (≈ 2.64 µM) | 8 µg/mL (≈ 21.1 µM) | 1 µg/mL (≈ 2.64 µM) | 1 µg/mL (≈ 2.64 µM) | 2 µg/mL (≈ 5.27 µM) | 256 µg/mL (≈ 675 µM) | 0.25 µg/mL (≈ 0.659 µM) | 1 µg/mL (≈ 2.64 µM) | Active | Active | – | – | – | – | – | – | – | –
2 | CCn1c2ccccc2c2c(OCc3nnn[nH]3)cccc21 | 2 µg/mL (≈ 6.82 µM) | 4 µg/mL (≈ 13.6 µM) | 128 µg/mL (≈ 436 µM) | 32 µg/mL (≈ 109 µM) | 32 µg/mL (≈ 109 µM) | 64 µg/mL (≈ 218 µM) | 8 µg/mL (≈ 27.3 µM) | 64 µg/mL (≈ 218 µM) | 256 µg/mL (≈ 873 µM) | 1 µg/mL (≈ 3.41 µM) | 64 µg/mL (≈ 218 µM) | – | – | Active | Non-Toxic | Non-Toxic | < 3% | Active | Active | Active | Activity (Cell membrane [16]): Active; Activity (Staphylococcus aureus [17]): Active
3 | C=CCn1c2ccccc2c2c(OCc3nnn[nH]3)cccc21 | 2 µg/mL (≈ 6.55 µM) | 4 µg/mL (≈ 13.1 µM) | 128 µg/mL (≈ 419 µM) | 64 µg/mL (≈ 210 µM) | 32 µg/mL (≈ 105 µM) | 64 µg/mL (≈ 210 µM) | 1 µg/mL (≈ 3.28 µM) | 32 µg/mL (≈ 105 µM) | 128 µg/mL (≈ 419 µM) | 0.5 µg/mL (≈ 1.64 µM) | 128 µg/mL (≈ 419 µM) | – | – | Active | Non-Toxic | Non-Toxic | < 3% | Active | Active | Active | Activity (Staphylococcus aureus [18]): Active; Activity (Cell membrane [16]): Active; Activity (Staphylococcus aureus [17]): Active
4 | C=CCn1c2ccccc2c2c(OCc3nnc(S)o3)cccc21 | 1 µg/mL (≈ 2.96 µM) | 64 µg/mL (≈ 190 µM) | 256 µg/mL (≈ 759 µM) | 4 µg/mL (≈ 11.9 µM) | 4 µg/mL (≈ 11.9 µM) | 4 µg/mL (≈ 11.9 µM) | 8 µg/mL (≈ 23.7 µM) | 8 µg/mL (≈ 23.7 µM) | 256 µg/mL (≈ 759 µM) | 0.5 µg/mL (≈ 1.48 µM) | 8 µg/mL (≈ 23.7 µM) | – | Active | – | – | – | – | – | – | – | –
5 | Sc1nnc(COc2cccc3c2c2ccccc2n3CC2CCCCC2)o1 | 0.5 µg/mL (≈ 1.27 µM) | 4 µg/mL (≈ 10.2 µM) | 256 µg/mL (≈ 651 µM) | 8 µg/mL (≈ 20.3 µM) | 16 µg/mL (≈ 40.7 µM) | 2 µg/mL (≈ 5.08 µM) | 4 µg/mL (≈ 10.2 µM) | 2 µg/mL (≈ 5.08 µM) | 256 µg/mL (≈ 651 µM) | 1 µg/mL (≈ 2.54 µM) | 4 µg/mL (≈ 10.2 µM) | Active | Active | – | – | – | – | – | – | – | –
